In US9676771B2, “Compounds for inhibiting drug-resistant strains of HIV-1 integrase” (priority 2013, dated 2017):
Read-outs that look alike come from different tables or passages of the source.

Target: HIV-1 integrase (Human immunodeficiency virus type 1 group M subtype B, UniProt P12497)
Assay: biochemical
Type: biochemical
Experimental: In Vitro Integrase Assay.
Integrase reactions were carried out by adding drugs or an equivalent volume of 100% dimethyl sulfoxide (DMSO; used as the drug solvent) to a mixture of 20 nM DNA and 400 nM integrase in 50 mM morpholinepropanesulfonic acid (pH 7.2), 7.5 mM MgCl2, and 14 mM 2-mercaptoethanol. Reactions were performed at 37° C. for 2 h and quenched by the addition of an equal volume of loading buffer (formamide containing 1% sodium dodecyl sulfate, 0.25% bromophenol blue, and xylene cyanol). […] Dried gels were visualized using a Typhoon 8600 (GE Healthcare, Piscataway, N.J.). Densitometric analyses were performed using ImageQuant 5.1 software from GE Healthcare.

[1] = Table 1, 3′-processing, read-out: IC50 Values 3′-Processing
[2] = Table 1, strand transfer, read-out: IC50 Values Strand transfer
[3] = Table 4, 3′-processing, read-out: IC50 (3^+-Processing)
[4] = Table 4, strand transfer, read-out: IC50 (Strand Transfer)

SMILES | IC50 [1] [µM] | IC50 [2] [µM] | IC50 [3] [µM] | IC50 [4] [µM]
O=C(NCc1ccc(F)c(Cl)c1)c1cc2cccc(O)c2n(O)c1=O [XZ374, N-(3-chloro-4-fluorobenzyl)-1,8-dihydroxy-2-oxo-1,2-dihydroquinoline-3-carboxamide] | 17 ± 1 | 0.53 ± 0.13 | – | –
O=C(NCc1ccc(F)cc1F)c1c(O)c2ccc(N3CCOCC3)nc2n(O)c1=O [XZ412, N-(2,4-difluorobenzyl)-1,4-dihydroxy-7-morpholino-2-oxo-1,2-dihydro-1,8-naphthyridine-3-carboxamide] | – | – | > 333 | 1.9 ± 0.2
O=C(NCc1ccc(F)cc1F)c1c(O)c2cccnc2[nH]c1=O [XZ352, N-(2,4-difluorobenzyl)-4-hydroxy-2-oxo-1,2-dihydro-1,8-naphthyridine-3-carboxamide] | > 333 | 7.1 ± 1.8 | – | –
COC(=O)CNc1c(C(=O)NCc2ccc(F)cc2F)c(=O)n(O)c2nc(N3CCCCC3)ccc12 [XZ411, methyl 2-((3-((2,4-difluorobenzyl)carbamoyl)-1-hydroxy-2-oxo-7-(piperidin-1-yl)-1,2-dihydro-1,8-naphthyridin-4-yl)amino)acetate] | – | – | – | 96 ± 40
O=C(NCc1ccc(F)c(F)c1)c1c(O)c2cccnc2[nH]c1=O [XZ368, N-(3,4-difluorobenzyl)-4-hydroxy-2-oxo-1,2-dihydro-1,8-naphthyridine-3-carboxamide] | 93 ± 8 | 8.1 ± 1.8 | – | –
O=C(NCc1ccc(F)cc1F)c1cc2ccccc2n(O)c1=O [XZ353, N-(2,4-difluorobenzyl)-1-hydroxy-2-oxo-1,2-dihydroquinoline-3-carboxamide] | > 333 | 19.7 ± 2.7 | – | –
COc1cccc2cc(C(=O)NCc3ccc(F)cc3F)c(=O)n(O)c12 [XZ370, N-(2,4-difluorobenzyl)-1-hydroxy-8-methoxy-2-oxo-1,2-dihydroquinoline-3-carboxamide] | > 333 | > 333 | – | –
O=C(NCc1ccc(F)cc1F)c1c(O)c2ccc(N3CCCCC3)nc2n(O)c1=O [XZ409, N-(2,4-difluorobenzyl)-1,4-dihydroxy-2-oxo-7-(piperidin-1-yl)-1,2-dihydro-1,8-naphthyridine-3-carboxamide] | – | – | > 333 | 70 ± 16
O=C(NCc1ccc(F)c(Cl)c1)c1c(O)c2cccnc2[nH]c1=O [XZ366, N-(3-chloro-4-fluorobenzyl)-4-hydroxy-2-oxo-1,2-dihydro-1,8-naphthyridine-3-carboxamide] | 125 ± 15 | 7.8 ± 1.1 | – | –
COC(=O)CNc1c(C(=O)NCc2ccc(F)cc2F)c(=O)n(O)c2nc(N3CCOCC3)ccc12 [XZ414, methyl 2-((3-((2,4-difluorobenzyl)carbamoyl)-1-hydroxy-7-morpholino-2-oxo-1,2-dihydro-1,8-naphthyridin-4-yl)amino)acetate] | – | – | – | 6.2 ± 0.8
O=C(NCc1ccc(F)cc1F)c1cc2cccc(O)c2n(O)c1=O [XZ369, N-(2,4-difluorobenzyl)-1,8-dihydroxy-2-oxo-1,2-dihydroquinoline-3-carboxamide] | 43 ± 5 | 18 ± 7 | – | –
O=C(NCc1ccc(F)c(F)c1)c1cc2cccc(O)c2n(O)c1=O [XZ375, N-(3,4-difluorobenzyl)-1,8-dihydroxy-2-oxo-1,2-dihydroquinoline-3-carboxamide] | 24 ± 3 | 0.78 ± 0.22 | – | –
Nc1c(C(=O)NCc2ccc(F)cc2F)c(=O)n(O)c2nc(N3CCCCC3)ccc12 [XZ410, 4-amino-N-(2,4-difluorobenzyl)-1-hydroxy-2-oxo-7-(piperidin-1-yl)-1,2-dihydro-1,8-naphthyridine-3-carboxamide] | – | – | > 333 | 54 ± 18
O=C(NCc1ccc(F)cc1)c1c(O)c2cccnc2[nH]c1=O [XZ364, N-(4-fluorobenzyl)-4-hydroxy-2-oxo-1,2-dihydro-1,8-naphthyridine-3-carboxamide] | 136 ± 16 | 5.1 ± 1.5 | – | –
Nc1c(C(=O)NCc2ccc(F)cc2F)c(=O)n(O)c2nc(N3CCOCC3)ccc12 [XZ413, 4-amino-N-(2,4-difluorobenzyl)-1-hydroxy-7-morpholino-2-oxo-1,2-dihydro-1,8-naphthyridine-3-carboxamide] | – | – | > 333 | 54 ± 10
